# Values of other authors, collected in PubChem BioAssay AID1259409 (Chemical Carcinogenesis Research Information System (CCRIS), 2018).
# System: rodent chemically induced tumor inhibition, incidence and multiplicity
# Assay: CCRIS tumor inhibitor studies
smiles,measurement,setting,value
CCC(C)C1NC(=O)C(C(C)=O)=C1O (stereo not drawn),"tumour outcome (control, treated, inhibition, significance)","Carcinogen: 7,12-DIMETHYLBENZ[A]ANTHRACENE, 57-97-6, Dose [Inhibitor]: 0, 250 UG 3/WK APPLIED 30 MIN PRIOR TO EACH PROMOTER DOSE FOR 140 D (STUDY DURATION: 140 D), Route [Inhibitor]: DERMAL, Species: MOUSE, Strain/Sex: SWISS/FEMALE, Target Tissue: Type of Lesion: SKIN: TUMOR, Dose [Carcinogen]: 200 NMOL IN 100 µL ACETONE ONCE, Promoter: 12-O-TETRADECANOYLPHORBOL-13-ACETATE, 16561-29-8","100%, 70%, 30%, not calculated"
CCCCCCC(=O)O[C@H]1CC[C@H]2[C@@H]3CCC4=CC(=O)CC[C@]4(C)[C@H]3CC[C@]12C,"tumour outcome (control, treated, inhibition, significance)","Carcinogen: 7,12-DIMETHYLBENZ[A]ANTHRACENE, 57-97-6, Dose [Inhibitor]: 0, 6 MG/100 G BW 1/WK FOR 150 D BEGINNING POST CARCINOGEN TREATMENT (STUDY DURATION: 150 D), Route [Inhibitor]: SUBCUTANEOUS, Species: RAT, Strain/Sex: WISTAR/FEMALE, Target Tissue: Type of Lesion: MAMMARY GLAND: ADENOCARCINOMA, Dose [Carcinogen]: 4 MG IN 0.1 ML OF SESAME OIL INJECTED ONCE INTO THE EXPOSED MAMMARY TISSUE OF HYPERPROLACTINEMIC RATS ON DAY 73 OF AGE, Promoter: NONE USED","8/11 (73%), 2/8 (25%), 66%, p<0.05"
O=C(O)CNC(=O)c1ccccc1,"tumour outcome (control, treated, inhibition, significance)","Carcinogen: N-BUTYL-N-(4-HYDROXYBUTYL)NITROSAMINE, 3817-11-6, Dose [Inhibitor]: 5% DIET DAILY FOR 34 WK STARTING AT COMPLETION OF CARCINOGEN TREATMENT (STUDY DURATION: 38 WK), Route [Inhibitor]: ORAL, Species: RAT, Strain/Sex: F344/MALE, Target Tissue: Type of Lesion: URINARY BLADDER: PAPILLOMA, Dose [Carcinogen]: 0.01% IN DRINKING WATER FOR 4 WK, Promoter: NONE USED","33%, 23%, 30%, not significant"
